Experimental data published in patent publication US20260167629A1, “NOVEL INDAZOLE DERIVATIVE OR PHARMACEUTICALLY ACCEPTABLE SALT THEREOF, AND USE THEREOF” (KOREA UNIVERSITY RESEARCH AND BUSINESS FOUNDATION, priority 2022, published 2026).
Values belong to the compound of their own block, whether it stands above or below them.

Columns and labels:
[1] = system: JIMT-1 cell line; assay: MTS cell viability assay in JIMT-1 cell line; type: cell-based; details: Homo sapiens, JIMT-1, 72 hours
Protocol: The control group was treated with DMSO as an untreated group (0 μM) of the indazole derivative of the present disclosure.
(§1) Specifically, cells were attached to 96 well plates for 24 hours, and then treated with the indazole derivatives for 72 hours. Thereafter, the cells were chromogenized with MTS for 4 hours, and the absorbance was measured at 490 nm using a Spectramax Plus384 microplate analyzer.
HER2 positive breast cancer (HER2+BC) cell lines, BT474 (cell seeding numbers: 2.4 (BT474)×10^4 cells/wells (confluency≥50%)) sensitive to trastuzumab and JIMT-1 (cell seeding numbers: 1.0 (JIMT-1)×10^4 cells/wells (confluency>30%)) resistant to trastuzumab were used in the experiment.
(§2) In this case, the cell lines were treated with the benzopyran derivative at a concentration of 10 μM for 72 hours and the cell lines were treated with the indazole derivative at a concentration of 10 μM for 72 hours, and then the cell viability was measured.

[2] = system: MDA-MB-231 cell line; assay: MTS cell viability assay in MDA-MB-231 cell line; type: cell-based; details: Homo sapiens, MDA-MB-231, 72 hours
Protocol: A HER2 positive breast cancer (HER2+BC) cell line, JIMT-1 (cell seeding numbers: 1.0 (JIMT)×10^4 cells/wells (confluency≤30%)) and a triple-negative breast cancer (TNBC) cell line, MDA-MB-231 (cell seeding numbers: 1.0 (M231)×10^4 cells/wells (confluency≤30%) were used in the experiment.
The above cell lines were cultured in Dulbecco's Modified Eagle's Medium (DMEM) or Eagle's minimum Essential Medium (MEM) each containing 10% fetal bovine serum (FBS), streptomycin-penicillin (100 U/ml), and Fungizone (0.625 μg/ml), respectively under 5% CO2, 37° C. environment.
The JIMT-1 cell line and MDA-MB-231 cell line were treated with the indazole derivatives (formulas 1-1 to 1-53) of the present disclosure at a concentration of 10 μM each for 72 hours, and then cell viability was measured using the MTS assay technique. The control group was treated with DMSO as an untreated group (0 μM) of the indazole derivative of the present disclosure.
as §1, with “analyzer. The significance between the control group and the experimental group was verified using an unpaired Students t-test (*p<0.01; DMSO control vs indazole series).” for “analyzer.”
HER2-positive breast cancer cell lines, BT474 (cell seeding numbers: 2.0 (JIMT)×10^4 cells/wells (confluency≤30%)) sensitive to trastuzumab, and JIMT-1 (cell seeding numbers: 1.0 (JIMT)×10^4 cells/wells (confluency≤30%)) resistant to trastuzumab, and a triple-negative breast cancer cell line, MDA-MB-231 (cell seeding numbers: 1.0 (M231)×10^4 cells/wells (confluency≤30%)) were used.
The BT474, JIMT-1, and MDA-MB-231 cell lines were treated with compound 18c (formula 1-16) and compound 11k (formula 1-7) at concentrations of 0 (DMSO), 0.1, 0.5, 1, 5, 10, and 20 μM, respectively, for 72 hours, and then cell viability was measured using the MTS assay technique as explained by the description of Experimental Example 1. The cell viability experiment was performed independently three times, and the significance was verified by a One-Way Anova, Bonferroni post-hoc test (*p<0.01; DMSO control vs. compound 18c or compound 11k).
In addition, the JIMT-1 and MDA-MB-231 cell lines were treated with compound 11m (formula 1-9), 11n (formula 1-10) and compound 12k (formula 1-13) at concentrations of 0 (DMSO), 0.1, 1, 5, 10, and 20 μM, respectively, for 72 hours, and then cell viability was measured.
(§3) Meanwhile, triple-negative breast cancer cell lines MDA-MB-231 and BT549, and a mouse breast cancer cell line 4T1 were treated with compound 38 (formula 1-30) at concentrations of 0 (DMSO), 0.1, 0.5, 1, 2, 5, 10, and 20 μM for 72 hours, and then cell viability was measured.
as §2, with “The indazole derivative of the present disclosure was compared with the benzopyran derivative of the related art (KR 10-2304532) in terms of cell viability of the BT474, JIMT-1, and MDA-MB-231 cell lines (Table 1). In” for “In”

[3] = system: mouse breast cancer cell line 4T1; assay: MTS cell viability assay in 4T1 cell line; type: cell-based; details: 4T1, 72 hours
Protocol: as §1, with “analyzer. The significance between the control group and the experimental group was verified using an unpaired Students t-test (*p<0.01; DMSO control vs indazole series).” for “analyzer.”
as §3

[4] = system: MDA-MB-231 cell line; assay: Annexin V/PI staining, type of cell death, MDA-MB-231; type: cell-based; details: MDA-MB-231, Annexin V/PI staining
Protocol: (§4) Meanwhile, triple-negative breast cancer cell lines, MDA-MB-231 and BT549 were treated with compound 38 (formula 1-30), and then the type of cell death was determined by Annexin V/PI staining.

[5] = system: BT549 cell line; assay: Cell morphology by phase contrast microscopy, BT549; type: cell-based; details: BT549, 5 and 10 μM, 72 hours
Protocol: (§5) MDA-MB-231 and BT549 cell lines were treated with compound 38 (formula 1-30) at concentrations of 0 (DMSO), 5, and 10 μM for 72 hours. Then, the drug-induced cytotoxicity was assessed by observing changes in cell morphology using phase contrast microscopy. The photographs were taken at a magnification of ×200 using phase contrast microscopy.

[6] = system: MDA-MB-231 cell line; assay: Cell morphology by phase contrast microscopy, MDA-MB-231; type: cell-based; details: MDA-MB-231, 5 and 10 μM, 72 hours
Protocol: as §5

[7] = system: BT549 cell line; assay: Annexin V/PI staining, type of cell death, BT549; type: cell-based
Protocol: as §4

[8] = system: BT549 cell line; assay: MTS cell viability assay in BT549 cell line; type: cell-based; details: Homo sapiens, BT-549; BT549, 72 hours
Protocol: as §1, with “analyzer. The significance between the control group and the experimental group was verified using an unpaired Students t-test (*p<0.01; DMSO control vs indazole series).” for “analyzer.”
as §3

[9] = Toxicity in JIMT-1 xenograft mice, combination with paclitaxel (body weight, AST, ALT, BUN); type: in vivo, Balb/c nude mice; details: combination study
[10] = system: JIMT-1 breast cancer cell line xenograft; assay: Tumor growth in JIMT-1 xenograft mouse model, combination with paclitaxel; type: in vivo, Balb/c nude mice
Protocol: This experiment was performed in an in vivo environment using a xenograft mouse model transplanted with the JIMT-1 breast cancer cell line.
6-week-old mice (Balb/c nude mice) were purchased and raised in an environment where they could freely access food and water. The mice were acclimated for more than 7 days, and then were transplanted with tumor cells. Tumor cells were injected subcutaneously into the mammary gland tissue of JIMT-1 breast cancer cells at a density of 3×10^6 cells/mL per individual, and when the tumor reached a size of 50 to 100 mm^3, the indazole derivative of the present disclosure was administered intraperitoneally, and the tumor growth was measured.

IC50 [2]: 3.65 µM
Compound: COc1c(C(=O)Nc2ccc3c(C)nn(CCCN4CCN(C)CC4)c3c2)ccc2c1C=CC(C)(C)O2 [compound 11n, 5-methoxy-2,2-dimethyl-N-(3-methyl-1-(3-(4-methylpiperazin-1-yl)propyl)-1H-indazol-6-yl)-2H-chromene-6-carboxamide]
IC50 [1]: 3.28 µM

IC50 [3]: 1210 nM
IC50 [2]: 3.67 µM
IC50 [8]: 4.84 µM
Compound: Cc1nn(CCC2CCN(C)CC2)c2cc(NC(=O)c3ccc4c(c3Cl)C=CC(C)(C)O4)ccc12 [compound 38, 5-chloro-2,2-dimethyl-N-(3-methyl-1-(2-(1-methylpiperidin-4-yl)ethyl)-1H-indazol-6-yl)-2H-chromene-6-carboxamide]
type of cell death (apoptosis) [4]: early and late apoptosis of cancer cells was induced
changes in cell morphology (cytotoxicity) [5]: morphological changes in which the cytoplasm shrank
changes in cell morphology (cytotoxicity) [6]: morphological changes in which the cytoplasm shrank
type of cell death (apoptosis) [7]: early and late apoptosis of cancer cells was induced

Compound: CC(=O)O[C@H]1C(=O)[C@@]2(C)[C@H]([C@H](OC(=O)c3ccccc3)[C@]3(O)C[C@H](OC(=O)[C@H](O)[C@@H](NC(=O)c4ccccc4)c4ccccc4)C(C)=C1C3(C)C)[C@]1(OC(C)=O)CO[C@@H]1C[C@@H]2O [paclitaxel, reference compound]
AST and ALT levels, BUN assay ([9]; blood of the mouse model): levels similar to those of the control group
body weight [9]: remained unchanged
tumor weight ([10]; measured after tumor resection): 488.333 mg
tumor volume ([10]; measured at 40 days after drug administration): 813.356 mm^3

IC50 [2]: 2.05 µM
Compound: COc1c(C(=O)Nc2ccc3cnn(CCC4CCN(C)CC4)c3c2)ccc2c1C=CC(C)(C)O2 [compound 12k, 5-methoxy-2,2-dimethyl-N-(1-(2-(1-methylpiperidin-4-yl)ethyl)-1H-indazol-6-yl)-2H-chromene-6-carboxamide]
IC50 [1]: 5.56 µM
